Assays:
Rabbit pyrogen test = format: in vivo; conditions: i.v. 10 μg/Kg dose
From the text: In an effort to obtain an immunostimulant that has low pyrogenicity, synthetic molecules have been prepared which share structural similarities with the MPL® immunostimulant (see U.S. patent application Ser. No. 09/810,915, Filed on Mar. 16, 2001, and the present invention). These novel molecules which are collectively called aminoalkyl glucosaminide phosphates (AGPs), consist of an acylated […] moiety linked to an acylated aminoalkyl group (Johnson et al. (1999) Bioorg. Med. Chem. Lett. 9: 2273-2278; PCT/WO98/50399 and references therein). […] The substitution of different chemical moieties within the aminoalkyl structures was designed into the AGPs in anticipation of optimizing stability and solubility properties. Thus the AGPs can be broadly separated into several families based on the structure of their aminoalkyl groups. […] Here we report on studies of the adjuvant properties of a class of AGPs which induce minimal activity in both the rabbit pyrogen test and the ex vivo cytokine assay.

[1] = tested on: HBsAg (Hepatitis B Surface Antigen); assay: Adjuvant activity towards HBsAg, serum titers by ELISA (Example 2); format: in vivo, BALB/c mice
Protocol: Vaccines were prepared by mixing the adjuvant-containing TEoA (triethanolamine) formulations with recombinant HBsAg. Titers to HBsAg were determined by ELISA from pooled sera (5 mice/group) collected 21 days post-secondary vaccination (Table 1). The nonimmune controls were not vaccinated.

HBsAg = assay: Adjuvant activity towards HBsAg, IgG1 and IgG2a isotype titers by ELISA (Example 4); format: in vivo, BALB/c mice
Protocol: IgG1 and IgG2a isotype titers to HBsAg were determined by ELISA from pooled sera collected 21 days post secondary (Table 3). The nonimmune controls were not vaccinated. […] RC-553 stimulated titers equivalent to the positive controls, MPL® immunostimulant (Table 3).

TNF-α = assay: Ex vivo cytokine induction in human whole blood, TNF-α sandwich ELISA; format: cell-based; conditions: 1, 5 and 10 μg/ml in the assay; 4 hr at 37° C.
Protocol: (§1) The effects of RC-553 on the elaboration of TNF-α and IL-1β was measured under ex vivo conditions on human peripheral blood mononuclear cells. MPL® immunostimulant and RC-553 were formulated in aqueous solutions of 0.2% TEoA/WFI.
(§2) Human whole blood was used to evaluate the ability of glycolipids (AGPs) to induce proinflammatory cytokines. Human whole blood is collected into heparinized tubes and 0.45 ml of whole blood is admixed with 0.05 ml phosphate buffered saline (PBS, pH 7.4) containing the glycolipid (i.e., the test compounds). The tubes are incubated for 4 hr at 37° C. on a shaker apparatus. The samples are then diluted with 1.5 ml sterile PBS and centrifuged. The supernatants are removed and analyzed for […] TNF-α and IL-1β by sandwich ELISA using R&D Systems' Quantikine immunoassay kits for human TNF-α and IL-1β.

IL-1β = assay: Ex vivo cytokine induction in human whole blood, IL-1β sandwich ELISA; format: cell-based
Protocol: as §1, §2

iNOS = iNOS induction in IFN-γ primed J774 murine macrophages, Greiss reagent nitrite release; format: cell-based; conditions: J774 cells primed with IFN-γ
Protocol: This example illustrates the effects of various glycolipids on iNOS induction in J774 murine macrophages. The murine macrophage cell line J774 can be primed by IFN-γ in vitro and is very responsive to subsequent LPS stimulation of iNOS upregulation as measured by a standard Greiss reagent ELISA assay procedure. The assay utilizes J774 cells seeded at 1×10^6/mL with 30 mL/flask and with IFN-γ added at 100 units/mL for 16-24 hrs. Cells are then harvested and washed and resuspended at 2×10^5/well in a 96-well plate and allowed to adhere. Glycolipid compounds are serially diluted into the wells for a test group and the resulting cultures are incubated for another 36-40 hrs before culture supernatants are collected from Greiss reagent analysis of nitrite release (Green et al. (1982) Anal. Biochem. 126: 131-138). Nitrite content closely parallels iNOS function.
Potency was determined as the concentration (ng/mL) of glycolipid in culture capable of inducing one-half maximal induction of nitrite (ED50). The lower the ED50 number, the greater the potency for iNOS induction. The ED50 was cacluated according to methods set out in Johnson et al., (1999) J Med Chem. 42: 4640-4649.

[2] = anti-HBsAg, 2 μg HBsAg + 20 μg adjuvant s.c. day 0 and 21, pooled sera 21 days post-secondary
[3] = anti-HBsAg, 2.0 μg HBsAg + 25 μg adjuvant s.c. day 0 and 21, pooled sera 21 days post secondary

N—[(R)-3-Tetradecanoyloxytetradecanoyl]-(S)-2-pyrrolidinomethyl 2-Deoxy-4-O-phosphono-2-[(R)-3-tetradecanoyloxytetradecanoylamino]-3-O—[(R)-3-tetradecanoyloxytetradecanoyl]-β-D-glucopyranoside Triethylammonium Salt [RC-553]
Pyrogenicity (total rise in ° C. of 3 rabbits) (Rabbit pyrogen test; Table 2): 0.3 °C
Pyrogenicity (total rise in ° C. of 3 rabbits) (Rabbit pyrogen test; Table 3): 0.3 °C
Pyrogenicity (total rise in ° C. of 3 rabbits) (Rabbit pyrogen test; Table 4): 0.3 °C
Pyrogenicity (total rise in ° C. of 3 rabbits) (Rabbit pyrogen test; solubilized in 10% EtOH/WFI, diluted with 5% dextrose in water, Table 1): 0.3 °C
anti-HBsAg responses (serum titers) versus antigen alone ([1]; Example 2): significantly higher than control sera receiving antigen alone
Serum Titers IgG [1, 2]: 409,600
Serum Titers IgG1 [1, 2]: 204,800
Serum Titers IgG2a [1, 2]: 409,600
Serum Titers IgG2b [1, 2]: 51,200
HBsAg titers versus control group which received antigen in PBS (HBsAg; Example 4): increased titers compared to the control group
Serum Titers IgG1 (HBsAg; [3]): 32,000
Serum Titers IgG2a (HBsAg; [3]): 2,048,000
Levels of TNF-α produced (TNF-α): did not produce levels of TNF-α that could be detected
Levels of IL-1β produced (IL-1β; 1, 5, and 10 μg/ml, 4 hr at 37° C.): did not produce detectable levels of IL-1β
Relative induction of cytokines (IL-1β), MPL® immunostimulant assigned a value of 1 (IL-1β; relative to MPL® immunostimulant = 1): ≤ 0.05
Maximal iNOS activity / iNOS induction (iNOS): essentially inactive

— patent publication US7501399B2, “Immunoeffector compounds” (Corixa Corporation, priority 2000, dated 2009)
